target: T1, STAT6 (endogenous, HiBiT-tagged) in HeLa LgBiT clone 4.14 cells (Homo sapiens, UniProt P42226); assay: STAT6 Degrader Assay (HiBiT based, HeLa LgBiT clone 4.14 cells, luminescence, DC50); format: cell-based; conditions: DC50 provided for test compounds with >80% Emax, geometric mean, read-out: STAT6 degradation DC50
T1 construct: These cells express endogenous STAT6; host or cells: HeLa LgBiT clone 4.14
T1 sequence (P42226 1-847): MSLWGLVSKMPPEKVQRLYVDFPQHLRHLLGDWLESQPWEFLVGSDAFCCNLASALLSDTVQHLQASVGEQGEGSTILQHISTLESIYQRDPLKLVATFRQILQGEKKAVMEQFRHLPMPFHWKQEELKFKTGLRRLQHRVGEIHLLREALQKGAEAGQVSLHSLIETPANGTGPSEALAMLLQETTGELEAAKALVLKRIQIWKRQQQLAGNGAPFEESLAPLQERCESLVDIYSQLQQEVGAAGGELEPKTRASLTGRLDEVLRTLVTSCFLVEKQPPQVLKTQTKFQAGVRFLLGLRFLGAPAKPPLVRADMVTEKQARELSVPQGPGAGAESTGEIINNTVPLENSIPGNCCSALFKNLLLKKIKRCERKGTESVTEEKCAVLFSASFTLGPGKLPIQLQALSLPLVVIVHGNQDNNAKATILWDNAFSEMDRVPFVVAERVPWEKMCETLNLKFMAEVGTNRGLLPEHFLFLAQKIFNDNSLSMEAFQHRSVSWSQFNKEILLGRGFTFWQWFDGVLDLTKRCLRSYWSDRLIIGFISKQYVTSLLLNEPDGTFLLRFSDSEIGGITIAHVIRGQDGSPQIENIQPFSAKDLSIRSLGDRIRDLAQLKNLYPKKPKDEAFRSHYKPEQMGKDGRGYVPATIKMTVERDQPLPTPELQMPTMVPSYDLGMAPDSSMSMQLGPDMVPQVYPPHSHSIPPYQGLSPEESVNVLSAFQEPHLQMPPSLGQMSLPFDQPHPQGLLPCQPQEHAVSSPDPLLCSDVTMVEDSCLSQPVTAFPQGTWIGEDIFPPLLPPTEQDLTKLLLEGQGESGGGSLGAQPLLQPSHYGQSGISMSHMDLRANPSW
How it was run: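 Remaining STAT6 is read as NanoBiT luminescence after 0.5 h with Nano-Glo, in HeLa LgBiT clone 4.14 cells expressing endogenous HiBiT-tagged STAT6, following 4-24 h compound incubation at 37 °C. Full degradation is set by 50 µM terfenadine, which kills the cells; degradation plotted against log compound concentration.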

SMILES	DC50 [nM]
C[C@@H](c1cc2c(-c3ccc4[nH]ncc4c3)ccnc2n1C)N1CCC(c2ccc(C(=O)N3CCC(CN4CCN(c5ccc(NC6CCC(=O)NC6=O)c(F)n5)CC4)CC3)cc2)CC1 (stereo partly drawn) [Example 2n7, 3-((6-(4-((1-(4-(1-((S)-1-(4-(1H-indazol-5-yl)-1-methyl-1H-pyrrolo[2,3-b]pyridin-2-yl)ethyl)-piperidin-4-yl)benzoyl)piperidin-4-yl)methyl)piperazin-1-yl)-2-fluoropyridin-3-yl)amino)piperidine-2,6-dione]	18
COCc1nc2cc(-c3ccnc4c3cc(CN3CCC(c5ccc(C(=O)N6CCC(CN7CCN(c8ccc(NC9CCC(=O)NC9=O)cc8F)C[C@H]7C)CC6)cc5)CC3)n4C)ccc2[nH]1 (stereo partly drawn) [Example 2f7, 3-((3-fluoro-4-((R)-4-((1-(4-(1-((4-(2-(methoxymethyl)-1H-benzo[d]imidazol-5-yl)-1-methyl-1H-pyrrolo[2,3-b]pyridin-2-yl)methyl)piperidin-4-yl)benzoyl)piperidin-4-yl)methyl)-3-methylpiperazin-1-yl)phenyl)-amino)piperidine-2,6-dione]	6.6
COCc1nc2cc(-c3ccnc4c3cc([C@H](C)N3CCC(c5ccc(C(=O)N6CCC(CN7CCN(c8ccc(NC9CCC(=O)NC9=O)cc8C(F)(F)F)CC7)CC6)cc5)CC3)n4C)ccc2[nH]1 (stereo partly drawn) [Example 2i5, 3-((4-(4-((1-(4-(1-((S)-1-(4-(2-(methoxymethyl)-1H-benzo[d]imidazol-5-yl)-1-methyl-1H-pyrrolo[2,3-b]pyridin-2-yl)ethyl)piperidin-4-yl)benzoyl)piperidin-4-yl)methyl)piperazin-1-yl)-3-(trifluoromethyl)phenyl)amino)piperidine-2,6-dione]	34
Cn1c(CN2CCC(c3ccc(C(=O)N4CCC(CN5CCC(N6CCC(c7ccc(NC8CCC(=O)NC8=O)cc7F)CC6)C(F)(F)C5)CC4)cc3)CC2)cc2c(-c3ccc(N)nc3)ccnc21 (stereo not drawn) [Example 2h2, 3-((4-(1′-((1-(4-(1-((4-(6-aminopyridin-3-yl)-1-methyl-1H-pyrrolo[2,3-b]pyridin-2-yl)-methyl)piperidin-4-yl)benzoyl)piperidin-4-yl)methyl)-3′, 3′-difluoro-[1,4′-bipiperidin]-4-yl)-3-fluoro-phenyl)amino)piperidine-2,6-dione]	133

same assay, conditions: Emax provided for test compounds with <80% Emax (and 2c15), geometric mean, read-out: STAT6 degradation Emax

SMILES	Emax [%]
COCc1nc2cc(-c3ccnc4c3cc(CN3CCC(c5ccc(C(=O)N6CCC(CN7CCN(Cc8ccc(-n9cc(N%10CCC(=O)NC%10=O)nn9)cc8)CC7)CC6)cc5)CC3)n4C)ccc2[nH]1 [Example 2c56, 1-(1-(4-((4-((1-(4-(1-((4-(2-(methoxymethyl)-1H-benzo[d]imidazol-5-yl)-1-methyl-1H-pyrrolo[2,3-b]pyridin-2-yl)methyl)piperidin-4-yl)benzoyl)piperidin-4-yl)methyl)piperazin-1-yl)methyl)-phenyl)-1H-1,2,3-triazol-4-yl) dihydropyrimidine-2,4 (1H,3H)-dione]	< 20
C[C@@H](c1cc2c(-c3ccc(N)nc3)ccnc2n1C)N1CCC(c2ccc(C(=O)N3CCC(CN4CCN(c5ccc(NC6CCC(=O)NC6=O)cc5Cl)CC4)CC3)cc2)CC1 (stereo partly drawn) [Example 2i6, 3-((4-(4-((1-(4-(1-((S)-1-(4-(6-aminopyridin-3-yl)-1-methyl-1H-pyrrolo[2,3-b]pyridin-2-yl)-ethyl)piperidin-4-yl)benzoyl)piperidin-4-yl)methyl)piperazin-1-yl)-3-chlorophenyl)amino)piperidine-2,6-dione]	70 to 80
COCc1nc2cc(-c3ccnc4c3cc(CN3CCC(c5ccc(C(=O)N6CCC(CN7CCN(c8ccc(NC9CCC(=O)NC9=O)c(F)c8)CC7)CC6)cc5)CC3)n4C)ccc2[nH]1 (stereo not drawn) [Example 2b3, 3-((2-fluoro-4-(4-((1-(4-(1-((4-(2-(methoxymethyl)-1H-benzo[d]imidazol-5-yl)-1-methyl-1H-pyrrolo[2,3-b]pyridin-2-yl)methyl)piperidin-4-yl)benzoyl)piperidin-4-yl)methyl)piperazin-1-yl)phenyl)amino)piperidine-2,6-dione]	70 to 80
COCc1nc2cc(-c3ccnc4c3cc([C@H](C)N3CCC(c5ccc(C(=O)N6CCC(CN7CCN(c8ccc(NC9CCC(=O)NC9=O)cc8C#N)CC7)CC6)cc5)CC3)n4C)ccc2[nH]1 (stereo partly drawn) [Example 2i2, 5-((2,6-dioxopiperidin-3-yl)amino)-2-(4-((1-(4-(1-((S)-1-(4-(2-(methoxymethyl)-1H-benzo[d]-imidazol-5-yl)-1-methyl-1H-pyrrolo[2,3-b]pyridin-2-yl)ethyl)piperidin-4-yl)benzoyl)piperidin-4-yl)methyl)-piperazin-1-yl)benzonitrile]	30 to 40
C[C@H]1CN(c2ccc(NC3CCC(=O)NC3=O)cc2F)CCN1CC1CCN(C(=O)c2ccc(C3CCN(Cc4cc5c(-c6ccc(N)nc6)ccnc5n4C)CC3)cc2)CC1 (stereo partly drawn) [Example 2f3, 3-((4-((S)-4-((1-(4-(1-((4-(6-aminopyridin-3-yl)-1-methyl-1H-pyrrolo[2,3-b]pyridin-2-yl)methyl)piperidin-4-yl)benzoyl)piperidin-4-yl)methyl)-3-methylpiperazin-1-yl)-3-fluorophenyl)amino)-piperidine-2,6-dione]	20 to 30
Cn1c(CN2CCC(c3ccc(C(=O)N4CCC(CN5CCN(c6ccc(C(=O)NC7CCC(=O)NC7=O)nn6)CC5)CC4)cc3)CC2)cc2c(-c3ccc4[nH]ncc4c3)ccnc21 (stereo not drawn) [Example 2d1, 6-(4-((1-(4-(1-((4-(1H-indazol-5-yl)-1-methyl-1H-pyrrolo[2,3-b]pyridin-2-yl)methyl)-piperidin-4-yl)benzoyl)piperidin-4-yl)methyl)piperazin-1-yl)-N-(2,6-dioxopiperidin-3-yl) pyridazine-3-carboxamide]	50 to 60
Cc1nc(N)ccc1-c1ccnc2c1cc(CN1CCC(c3ccc(C(=O)N4CCC(CN5CCN(c6ccc(NC7CCC(=O)NC7=O)cc6F)CC5)CC4)cc3)CC1)n2C (stereo not drawn) [Example 2c7, 3-((4-(4-((1-(4-(1-((4-(6-amino-2-methylpyridin-3-yl)-1-methyl-1H-pyrrolo[2,3-b]pyridin-2-yl)methyl)piperidin-4-yl)benzoyl)piperidin-4-yl)methyl)piperazin-1-yl)-3-fluorophenyl)amino)piperidine-2,6-dione]	30 to 40
Cn1c(CN2CCC(c3ccc(C(=O)N4CCn5c(CN6CCC(c7ccc(NC8CCC(=O)NC8=O)cc7F)CC6)nnc5C4)cc3)CC2)cc2c(-c3ccc(N)nc3)ccnc21 (stereo not drawn) [Example 2q1, 3-((4-(1-((7-(4-(1-((4-(6-aminopyridin-3-yl)-1-methyl-1H-pyrrolo[2,3-b]pyridin-2-yl)methyl)piperidin-4-yl)benzoyl)-5,6,7,8-tetrahydro-[1,2,4]triazolo[4,3-a]pyrazin-3-yl)methyl)piperidin-4-yl)-3-fluorophenyl)amino)piperidine-2,6-dione]	40 to 50
Cn1c(CN2CCC(c3ccc(C(=O)N4CCC(CN5CCN(c6ccc(NC7CCC(=O)NC7=O)c(F)n6)CC5)CC4)cc3)CC2)cc2c(-c3ccc(N)nc3)ccnc21 (stereo not drawn) [Example 2n4, 3-((6-(4-((1-(4-(1-((4-(6-aminopyridin-3-yl)-1-methyl-1H-pyrrolo[2,3-b]pyridin-2-yl)methyl)-piperidin-4-yl)benzoyl)piperidin-4-yl)methyl)piperazin-1-yl)-2-fluoropyridin-3-yl)amino)piperidine-2,6-dione]	70 to 80
Cn1c(CN2CCC(c3ccc(C(=O)N4CCn5c(CN6CCC(c7ccc(NC8CCC(=O)NC8=O)cc7F)CC6)nnc5C4)cc3)CC2)cc2c(-c3ccc4[nH]ncc4c3)ccnc21 (stereo not drawn) [Example 2q2, 3-((4-(1-((7-(4-(1-((4-(1H-indazol-5-yl)-1-methyl-1H-pyrrolo[2,3-b]pyridin-2-yl)methyl)-piperidin-4-yl)benzoyl)-5,6,7,8-tetrahydro-[1,2,4]triazolo[4,3-a]pyrazin-3-yl)methyl)piperidin-4-yl)-3-fluorophenyl)amino)piperidine-2,6-dione]	70 to 80
Cn1c(CN2CCC(c3ccc(C(=O)N4CCC(CN5CCN(Cc6ccc(NC7CCC(=O)NC7=O)cc6F)CC5)CC4)cc3)CC2)cc2c(-c3ccc(N)nc3)ccnc21 (stereo not drawn) [Example 2s2, 3-((4-((4-((1-(4-(1-((4-(6-aminopyridin-3-yl)-1-methyl-1H-pyrrolo[2,3-b]pyridin-2-yl)methyl)piperidin-4-yl)benzoyl)piperidin-4-yl)methyl)piperazin-1-yl)methyl)-3-fluorophenyl)amino)piperidine-2,6-dione]	40 to 50

Reference: patent US20260014147A1, “STAT6 DEGRADERS” (Gilead Sciences, Inc., priority 2024, published 2026)
